{
  "source": "ChEMBL document CHEMBL4145458",
  "about": "“Natural compounds and combination therapy in colorectal cancer treatment” (2018)",
  "type_in_all_cases": "functional",
  "key": {"CT26": {"test_system": "CT26", "experiment": "Antitumor activity against mouse CT26 cells implanted in BALB/c mouse at 1 mg/kg, po qd administered through oral gavage for 15 days in presence of cisplatin relative to control"}, "[1]": {"experiment": "Antitumor activity against human TC118 cells xenografted in Swiss nu/nu mouse assessed as tumor growth inhibition at 150 mg/kg, ip qd for 5 days in presence of 5-FU", "settings": "120 h, read-out: TGI"}, "Homo sapiens [2]": {"test_system": "Homo sapiens", "experiment": "Induction of apoptosis in tumor of colorectal cancer patient at 200 mg/day, po administered for 14 days relative to control"}, "Homo sapiens [3]": {"test_system": "Homo sapiens", "experiment": "Reduction in aberrant crypt foci number in colorectal cancer patient at 4 g/day, po administered 30 days relative to control", "set-up": "scale not given: the % may be the effect or the level left"}, "Homo sapiens [4]": {"test_system": "Homo sapiens", "experiment": "Upregulation of cleaved caspase-3 levels in malignant hepatic tissue of cancer patient at 5 g/day, po administered for 10 to 21 days by immunohistochemistry relative to control"}, "Homo sapiens [5]": {"test_system": "Homo sapiens", "experiment": "Reduction in tumor cell proliferation in colorectal cancer patient at 0.5 to 1 g/day, po administered 8 times per day for 8 days by Ki-67 staining-based microscopic method relative to control", "set-up": "scale not given: the % may be the effect or the level left"}},
  "data": [
    {"smiles": "O=C(/C=C/c1ccc(O)cc1)c1ccc(O)cc1O", "note": "[ISOLIQUIRITIGENIN]", "values": [
      {"measurement": "Activity", "setting": "CT26", "result": 79, "unit": "%"}
    ]},
    {"smiles": "CC(C)=CCC/C(C)=C/CO", "note": "[GERANIOL]", "values": [
      {"measurement": "inhibition in vivo at 150 mg/kg", "setting": "[1]", "result": "≤ 83", "unit": "%"}
    ]},
    {"smiles": "C[C@H]1[C@H](OC(=O)CCC(=O)O)O[C@@H]2O[C@@]3(C)CC[C@H]4[C@H](C)CC[C@@H]1[C@@]24OO3", "note": "[ARTESUNATE]", "values": [
      {"measurement": "Activity", "setting": "Homo sapiens [2]", "result": 13, "unit": "%"}
    ]},
    {"smiles": "COc1cc(/C=C/C(=O)CC(=O)/C=C/c2ccc(O)c(OC)c2)ccc1O", "note": "[CURCUMIN]", "values": [
      {"measurement": "Activity", "setting": "Homo sapiens [3]", "result": 40, "unit": "%"}
    ]},
    {"smiles": "Oc1ccc(/C=C/c2cc(O)cc(O)c2)cc1", "note": "[RESVERATROL]", "values": [
      {"measurement": "Activity", "setting": "Homo sapiens [4]", "result": 39, "unit": "%"},
      {"measurement": "Activity", "setting": "Homo sapiens [5]", "result": 5, "unit": "%"}
    ]}
  ]
}
